# In publication PMC7373191, “Escherichia coli K-12 Lacks a High-Affinity Assimilatory Cysteine Importer” (mBio, 2020):
# B1: LIV system (LivJ/LivKHMGF) (Escherichia coli K-12) (protein)
# chain 1: EDIKVAVVGAMSGPVAQYGDQEFTGAEQAVADINAKGGIKGNKLQIVKYDDACDPKQAVAVANKVVNDGIKYVIGHLCSSSTQPASDIYEDEGILMITPAATAPELTARGYQLILRTTGLDSDQGPTAAKYILEKVKPQRIAIVHDKQQYGEGLARAVQDGLKKGNANVVFFDGITAGEKDFSTLVARLKKENIDFVYYGGYHPEMGQILRQARAAGLKTQFMGPEGVANVSLSNIAGESAEGLLVTKPKNYDQVPANKPIVDAIKAKKQDPSGAFVWTTYAALQSLQAGLNQSDDPAEIAKYLKANSVDTVMGPLTWDEKGDLKGFEFGVFDWHANGTATDAK
# chain 2: DDIKVAVVGAMSGPIAQWGDMEFNGARQAIKDINAKGGIKGDKLVGVEYDDACDPKQAVAVANKIVNDGIKYVIGHLCSSSTQPASDIYEDEGILMISPGATNPELTQRGYQHIMRTAGLDSSQGPTAAKYILETVKPQRIAIIHDKQQYGEGLARSVQDGLKAANANVVFFDGITAGEKDFSALIARLKKENIDFVYYGGYYPEMGQMLRQARSVGLKTQFMGPEGVGNASLSNIAGDAAEGMLVTMPKRYDQDPANQGIVDALKADKKDPSGPYVWITYAAVQSLATALERTGSDEPLALVKDLKANGANTVIGPLNWDEKGDLKGFDFGVFQWHADGSSTAAK
# notes: native chromosomal ABC importer in whole cells; other candidate importers deleted
# Assays:
# Type in all cases: cell-based, Escherichia coli
# (UniProt P04816+P0AD96) [1] = target: T1, (UniProt P04816+P0AD96); test: inhibition of […]leucine uptake into whole cells, filtration; conditions: read-out: 50% inhibition
# T1 construct: gene livJ; native chromosomal ABC importer in whole cells; other candidate importers deleted
# T1 sequence (P22731 whole entry, one chain of several): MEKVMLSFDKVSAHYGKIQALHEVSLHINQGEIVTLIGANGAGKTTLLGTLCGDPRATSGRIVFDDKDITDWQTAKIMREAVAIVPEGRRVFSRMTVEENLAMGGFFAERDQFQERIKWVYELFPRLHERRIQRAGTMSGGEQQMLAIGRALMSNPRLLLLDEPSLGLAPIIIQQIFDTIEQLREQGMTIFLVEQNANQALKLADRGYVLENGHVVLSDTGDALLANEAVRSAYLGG
# T1 sequence (P0AEX7 whole entry, one chain of several, further chain): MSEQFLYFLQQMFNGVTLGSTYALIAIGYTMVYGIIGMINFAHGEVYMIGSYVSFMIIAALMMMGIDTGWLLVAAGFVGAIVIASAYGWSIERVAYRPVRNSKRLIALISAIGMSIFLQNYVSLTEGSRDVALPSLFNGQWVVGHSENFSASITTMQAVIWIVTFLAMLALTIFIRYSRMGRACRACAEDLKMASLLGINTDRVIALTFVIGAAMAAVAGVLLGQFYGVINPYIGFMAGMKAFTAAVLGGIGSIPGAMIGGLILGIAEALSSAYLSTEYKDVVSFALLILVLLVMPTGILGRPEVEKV
# T1 sequence (P22729 whole entry, one chain of several, further chain): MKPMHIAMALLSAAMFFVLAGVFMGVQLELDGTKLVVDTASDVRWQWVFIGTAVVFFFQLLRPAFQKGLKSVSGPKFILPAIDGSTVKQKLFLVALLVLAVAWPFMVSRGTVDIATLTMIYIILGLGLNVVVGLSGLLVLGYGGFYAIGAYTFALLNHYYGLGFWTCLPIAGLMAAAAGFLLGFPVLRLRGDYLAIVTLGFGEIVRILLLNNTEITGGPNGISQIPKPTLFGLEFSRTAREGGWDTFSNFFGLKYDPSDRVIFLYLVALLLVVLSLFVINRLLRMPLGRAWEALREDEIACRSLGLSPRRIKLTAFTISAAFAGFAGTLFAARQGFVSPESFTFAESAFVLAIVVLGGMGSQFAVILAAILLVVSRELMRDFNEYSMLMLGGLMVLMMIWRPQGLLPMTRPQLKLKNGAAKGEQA
# T1 sequence (P0A9S7 whole entry, one chain of several, further chain): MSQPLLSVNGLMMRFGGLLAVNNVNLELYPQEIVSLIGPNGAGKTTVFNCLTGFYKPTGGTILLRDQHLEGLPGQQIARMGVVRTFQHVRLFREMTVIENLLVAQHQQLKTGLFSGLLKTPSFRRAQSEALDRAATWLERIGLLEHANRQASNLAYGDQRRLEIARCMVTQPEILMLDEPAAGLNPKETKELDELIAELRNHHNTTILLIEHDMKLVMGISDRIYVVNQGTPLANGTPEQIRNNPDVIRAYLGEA
# (UniProt P04816+P0AD96) [2] = target: T1, (UniProt P04816+P0AD96); test: inhibition of […]cysteine uptake into whole cells, filtration; conditions: read-out: 50% inhibition
# [3] = substrate: N[C@@H](CS)C(=O)O; test: cells, lysate or membranes; conditions: strain ZYD214, no other amino acids, 93-s time point, 37 °C, minimal glucose medium pH 7.0, DTPA and chloramphenicol, labelled compound
molecule,measurement,setting,value
N[C@@H](CS)C(=O)O [cysteine],IC50,(UniProt P04816+P0AD96) [1],~400 µM
CC(C)C[C@H](N)C(=O)O [leucine],IC50,(UniProt P04816+P0AD96) [2],~2 µM
B1,Km,[3],20 µM
